In brackets after ≈: the same amount, converted by molar mass.
What was measured:
[1] = system: Burkholderia pseudomallei; experiment: Antibacterial activity against Burkholderia pseudomallei BPS2020IRBA003 under succinate minimum medium by CLSI protocol based microdilution method; assay type: functional
Pseudomonas aeruginosa [2] = experiment: Antibacterial activity against Pseudomonas aeruginosa PAD07 under muller hinton medium by CLSI protocol based microdilution method; assay type: functional
Pseudomonas aeruginosa [3] = experiment: Antibacterial activity against Pseudomonas aeruginosa PAO1 under muller hinton medium by CLSI protocol based microdilution method; assay type: functional
[4] = system: Burkholderia pseudomallei; experiment: Antibacterial activity against Burkholderia pseudomallei BPS2020IRBA002 under succinate minimum medium after 48 hrs by CLSI protocol based microdilution method; assay type: functional
[5] = system: Burkholderia thailandensis; experiment: Antibacterial activity against Burkholderia thailandensis E264 under muller hinton medium by CLSI protocol based microdilution method; assay type: functional
[6] = system: Burkholderia thailandensis; experiment: Antibacterial activity against Burkholderia thailandensis E264TS32C10 under succinate minimum medium after 48 hrs by CLSI protocol based microdilution method; assay type: functional
[7] = system: Burkholderia thailandensis; experiment: Antibacterial activity against Burkholderia thailandensis E264TS32C12 under 1 uM FeCl3 medium by CLSI protocol based microdilution method; assay type: functional
[8] = system: Burkholderia thailandensis; experiment: Antibacterial activity against Burkholderia thailandensis E264TS32C10 under muller hinton medium by CLSI protocol based microdilution method; assay type: functional
[9] = system: Burkholderia pseudomallei; experiment: Antibacterial activity against Burkholderia pseudomallei BPS2020IRBA001 under succinate minimum medium by CLSI protocol based microdilution method; assay type: functional
Pseudomonas aeruginosa [10] = experiment: Antibacterial activity against Pseudomonas aeruginosa AM85 under muller hinton medium by CLSI protocol based microdilution method; assay type: functional
Lipid bilayer = experiment: Binding affinity to bacterial inner membrane mimic PE/PG/CL/PC (60:20:10:10) assessed as maximum insertion pressure
[11] = system: Burkholderia thailandensis; experiment: Antibacterial activity against Burkholderia thailandensis E264TS32C47 under muller hinton medium by CLSI protocol based microdilution method; assay type: functional
Pseudomonas aeruginosa [12] = experiment: Antibacterial activity against Pseudomonas aeruginosa AM85 under succinate minimum medium by CLSI protocol based microdilution method; assay type: functional
[13] = system: Burkholderia thailandensis; experiment: Antibacterial activity against Burkholderia thailandensis E264TS32C12 under succinate minimum medium by CLSI protocol based microdilution method; assay type: functional
[14] = system: Burkholderia pseudomallei; experiment: Antibacterial activity against Burkholderia pseudomallei BPS2020IRBA004 under muller hinton medium by CLSI protocol based microdilution method; assay type: functional
[15] = system: Burkholderia pseudomallei; experiment: Antibacterial activity against Burkholderia pseudomallei BPS2020IRBA005 under 1 uM FeCl3 medium after 48 hrs by CLSI protocol based microdilution method; assay type: functional
[16] = system: Burkholderia pseudomallei; experiment: Antibacterial activity against Burkholderia pseudomallei BPS2020IRBA001 under 1 uM FeCl3 medium by CLSI protocol based microdilution method; assay type: functional
[17] = system: Burkholderia thailandensis; experiment: Antibacterial activity against Burkholderia thailandensis E264TS32C10 under 1 uM FeCl3 medium by CLSI protocol based microdilution method; assay type: functional
Pseudomonas aeruginosa [18] = experiment: Antibacterial activity against Pseudomonas aeruginosa PAD07 under succinate minimum medium by CLSI protocol based microdilution method; assay type: functional
[19] = system: Burkholderia pseudomallei; experiment: Antibacterial activity against Burkholderia pseudomallei BPS2020IRBA003 under 1 uM FeCl3 medium by CLSI protocol based microdilution method; assay type: functional
[20] = system: Burkholderia pseudomallei; experiment: Antibacterial activity against Burkholderia pseudomallei BPS2020IRBA002 under 1 uM FeCl3 medium by CLSI protocol based microdilution method; assay type: functional
[21] = Stability in aqueous solution after 1 months; assay type: physicochemical; settings: buffer, 730 h
Pseudomonas aeruginosa [22] = experiment: Antibacterial activity against Pseudomonas aeruginosa PAO1 under 1 uM FeCl3 medium by CLSI protocol based microdilution method; assay type: functional
Pseudomonas aeruginosa [23] = experiment: Antibacterial activity against Pseudomonas aeruginosa PAD07 under 1 uM FeCl3 medium by CLSI protocol based microdilution method; assay type: functional
[24] = system: Burkholderia pseudomallei; experiment: Antibacterial activity against Burkholderia pseudomallei BPS2020IRBA003 under muller hinton medium by CLSI protocol based microdilution method; assay type: functional
[25] = system: Burkholderia pseudomallei; experiment: Antibacterial activity against Burkholderia pseudomallei K96243 under succinate minimum medium after 48 hrs by CLSI protocol based microdilution method; assay type: functional
Pseudomonas aeruginosa [26] = experiment: Antibacterial activity against Pseudomonas aeruginosa AM85 under 1 uM FeCl3 medium by CLSI protocol based microdilution method; assay type: functional
[27] = system: Burkholderia pseudomallei; experiment: Antibacterial activity against Burkholderia pseudomallei BPS2020IRBA005 under muller hinton medium by CLSI protocol based microdilution method; assay type: functional
[28] = system: Burkholderia thailandensis; experiment: Antibacterial activity against Burkholderia thailandensis E264TS32C12 under muller hinton medium by CLSI protocol based microdilution method; assay type: functional
[29] = system: Burkholderia pseudomallei; experiment: Antibacterial activity against Burkholderia pseudomallei BPS2020IRBA001 under muller hinton medium by CLSI protocol based microdilution method; assay type: functional
[30] = system: Burkholderia thailandensis; experiment: Antibacterial activity against Burkholderia thailandensis E264TS32C47 under succinate minimum medium by CLSI protocol based microdilution method; assay type: functional
[31] = system: Burkholderia thailandensis; experiment: Antibacterial activity against Burkholderia thailandensis E264 under 1 uM FeCl3 medium by CLSI protocol based microdilution method; assay type: functional
Lipopolysaccharide (LPS) = experiment: Binding affinity to Pseudomonas aeruginosa lipopolysaccharide assessed as maximum insertion pressure
[32] = system: Burkholderia pseudomallei; experiment: Antibacterial activity against Burkholderia pseudomallei BPS2020IRBA002 under muller hinton medium by CLSI protocol based microdilution method; assay type: functional
[33] = system: Burkholderia pseudomallei; experiment: Antibacterial activity against Burkholderia pseudomallei BPS2020IRBA005 under succinate minimum medium after 48 hrs by CLSI protocol based microdilution method; assay type: functional
[34] = system: Burkholderia pseudomallei; experiment: Antibacterial activity against Burkholderia pseudomallei K96243 under muller hinton medium by CLSI protocol based microdilution method; assay type: functional
HepG2 = experiment: Cytotoxicity against human HepG2 cells at 28 ug/ml after 48 hrs by CellTiter-Glo luminescent cell viability assay; assay type: toxicity, cell-based; settings: hepg2, 48 h, dose 28 µg/ml
Pseudomonas aeruginosa [35] = experiment: Antibacterial activity against Pseudomonas aeruginosa PAO1 under succinate minimum medium by CLSI protocol based microdilution method; assay type: functional
[36] = system: Burkholderia pseudomallei; experiment: Antibacterial activity against Burkholderia pseudomallei K96243 under 1 uM FeCl3 medium by CLSI protocol based microdilution method; assay type: functional
[37] = system: Burkholderia thailandensis; experiment: Antibacterial activity against Burkholderia thailandensis E264TS32C47 under 1 uM FeCl3 medium by CLSI protocol based microdilution method; assay type: functional
[38] = system: Burkholderia thailandensis; experiment: Antibacterial activity against Burkholderia thailandensis E264 under succinate minimum medium by CLSI protocol based microdilution method; assay type: functional

For `CC(OC(=O)c1cccc(O)c1O)OC(=O)N1CCN(c2cc3c(cc2F)c(=O)c(C(=O)O)cn3C2CC2)CC1` (stereo unspecified), the MIC [1] was 8 µg/mL (≈ 14.4 µM), the MIC (Pseudomonas aeruginosa [2]) was 0.25 µg/mL (≈ 0.45 µM) and the MIC (Pseudomonas aeruginosa [3]) was 1 µg/mL (≈ 1.8 µM). It also gave an MIC [4] of 8 µg/mL (≈ 14.4 µM), an MIC [5] of 32 µg/mL (≈ 57.6 µM) and an MIC [6] of 32 µg/mL (≈ 57.6 µM). For the same compound, the MIC [7] was 16 µg/mL (≈ 28.8 µM), the MIC [8] was greater than 128 µg/mL and the MIC [9] was 2 µg/mL (≈ 3.6 µM). For the same compound, the MIC (Pseudomonas aeruginosa [10]) was greater than 128 µg/mL, the Activity (Lipid bilayer) was 44 mN/meter and the MIC [11] was 32 µg/mL (≈ 57.6 µM). It also gave an MIC (Pseudomonas aeruginosa [12]) greater than 128 µg/mL, an MIC [13] of 4 µg/mL (≈ 7.2 µM) and an MIC [14] of 32 µg/mL (≈ 57.6 µM). For the same compound, the MIC [15] was 16 µg/mL (≈ 28.8 µM), the MIC [16] was 32 µg/mL (≈ 57.6 µM) and the MIC [17] was 32 µg/mL (≈ 57.6 µM). For the same compound, the MIC (Pseudomonas aeruginosa [18]) was 0.25 µg/mL (≈ 0.45 µM), the MIC [19] was 16 µg/mL (≈ 28.8 µM) and the MIC [20] was 8 µg/mL (≈ 14.4 µM). For the same compound, the Stability [21] was “Stable”, the MIC (Pseudomonas aeruginosa [22]) was 1 µg/mL (≈ 1.8 µM) and the MIC (Pseudomonas aeruginosa [23]) was 2 µg/mL (≈ 3.6 µM). It also gave an MIC [24] of 32 µg/mL (≈ 57.6 µM), an MIC [25] of 2 µg/mL (≈ 3.6 µM) and an MIC (Pseudomonas aeruginosa [26]) greater than 128 µg/mL. It also gave an MIC [27] of 128 µg/mL (≈ 230 µM), an MIC [28] of 64 µg/mL (≈ 115 µM) and an MIC [29] of 128 µg/mL (≈ 230 µM). For the same compound, the MIC [30] was 4 µg/mL (≈ 7.2 µM), the MIC [31] was 8 µg/mL (≈ 14.4 µM) and the Activity (Lipopolysaccharide (LPS)) was 30 mN/meter. It also gave an MIC [32] of 32 µg/mL (≈ 57.6 µM), an MIC [33] of 8 µg/mL (≈ 14.4 µM) and an MIC [34] of 8 µg/mL (≈ 14.4 µM). For the same compound, the Activity (HepG2) was “Non-Toxic”, the MIC (Pseudomonas aeruginosa [35]) was 1 µg/mL (≈ 1.8 µM) and the MIC [36] was 4 µg/mL (≈ 7.2 µM). It also gave an MIC [37] of 8 µg/mL (≈ 14.4 µM) and an MIC [38] of 8 µg/mL (≈ 14.4 µM).

Reference: ChEMBL document CHEMBL5335767, “Synthesis and study of new siderophore analog-ciprofloxacin conjugates with antibiotic activities against Pseudomonas aeruginosa and Burkholderia spp” (Eur J Med Chem, 2023)
